The values that follow are results of earlier work, collected in patent publication US11040008B2, “Pharmaceutical compositions of meloxicam” (Slayback Pharma LLC, priority 2018, dated 2021).

Structures are written as SMILES.

For series [1] the following is noted: oral, fasted steady state conditions.

Take `Cc1cnc(NC(=O)C2=C(O)c3ccccc3S(=O)(=O)N2C)s1` [meloxicam, 4-hydroxy-2-methyl-N-(5-methyl-2-thiazolyl)-2H-1,2-benzothiazine-3-carboxamide-1,1-dioxide]: the Solubility in water result is on record as “practically insoluble in water”. For the same compound, the “Time of second meloxicam concentration peak post-dose” value in series [1] is on record as “twelve to fourteen”.
